According to patent US20140155376A1, “PYRROLOPYRAZINE KINASE INHIBITORS” (Hoffmann-La Roche Inc., priority 2010, published 2014):

Target: T1, JAK3 (recombinant human kinase domain; h-jak3(810-1124)) (Homo sapiens, UniProt P52333)
T1 construct: h-jak3(810- 1124)-sf9-c; made in house; host or cells: Sf9 insect cells
Experiment: Determination of IC50 of Janus Kinase (JAK) inhibition: JAK3, radioactive end-point assay with 33P-ATP
Assay type: biochemical
Conditions: JAK3 kinase domain; ATP 1.5 uM, peptide 50 uM, 20 minutes, room temperature, 10% DMSO; read-out: Ic50 h-jak3(810-1124)-sf9-c:no additive

T1 sequence (P52333 810-1124): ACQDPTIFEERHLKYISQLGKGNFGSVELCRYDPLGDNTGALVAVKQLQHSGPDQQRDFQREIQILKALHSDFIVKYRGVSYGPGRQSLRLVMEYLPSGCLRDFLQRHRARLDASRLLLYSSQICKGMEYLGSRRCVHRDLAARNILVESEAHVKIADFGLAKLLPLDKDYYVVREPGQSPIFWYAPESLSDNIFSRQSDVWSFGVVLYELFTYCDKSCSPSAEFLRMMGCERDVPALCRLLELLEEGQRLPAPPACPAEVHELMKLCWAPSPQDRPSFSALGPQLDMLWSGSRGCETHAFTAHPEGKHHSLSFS

Row | SMILES | IC50 [nM]
1 | CCNC(=O)c1c[nH]c2ncc(Oc3cccc4c3CCCC4)nc12 [Example I-259] | 6710
2 | C=Cc1cccc(-n2cnc(-c3cnc4[nH]cc(C(=O)N[C@@H](C)C(C)(C)C)c4n3)c2)c1 [Example I-163, 2-[1-(3-Vinyl-phenyl)-1H-imidazol-4-yl]-5H-pyrrolo[2,3-b]pyrazine-7-carboxylic acid ((S)-1,2,2-trimethyl-propyl)-amide] | 3
3 | CC(C)(CO)CNC(=O)c1c[nH]c2ncc(C(F)(F)F)nc12 [Example I-35, 2-Trifluoromethyl-5H-pyrrolo[2,3-b]pyrazine-7-carboxylic acid (3-hydroxy-2,2-dimethyl-propyl)-amide] | 1040
4 | C[C@H](NC(=O)c1c[nH]c2ncc(-c3cccs3)nc12)C(C)(C)C [Example I-142, 2-Thiophen-2-yl-5H-pyrrolo[2,3-b]pyrazine-7-carboxylic acid ((S)-1,2,2-trimethyl-propyl)-amide] | 0.18
5 | C[C@H](NC(=O)c1c[nH]c2ncc(-c3ccc(C(=O)N4CC(C#N)C4)s3)nc12)C(C)(C)C [Example I-178, 2-[5-(3-Cyano-azetidine-1-carbonyl)-thiophen-2-yl]-5H-pyrrolo[2,3-b]pyrazine-7-carboxylic acid ((S)-1,2,2-trimethyl-propyl)-amide] | 0.32
6 | CCn1cc(-c2cnc3[nH]cc(C(=O)N[C@H](C)C(C)(C)O)c3n2)cn1 [Example I-99, 2-(1-Ethyl-1H-pyrazol-4-yl)-5H-pyrrolo[2,3-b]pyrazine-7-carboxylic acid ((R)-2-hydroxy-1,2-dimethyl-propyl)-amide] | 6.61
7 | CC(NC(=O)c1ccc(-c2cnc3[nH]cc(C(=O)N[C@@H](C)C(C)(C)C)c3n2)s1)c1cccnc1 (stereo partly drawn) [Example I-171, 2-[5-(1-Pyridin-3-yl-ethylcarbamoyl)-thiophen-2-yl]-5H-pyrrolo[2,3-b]pyrazine-7-carboxylic acid ((S)-1,2,2-trimethyl-propyl)-amide] | 0.23
8 | C[C@H](NC(=O)c1c[nH]c2ncc(-c3cn(-c4cccc(C(C)(C)C)c4)cn3)nc12)C(C)(C)C [Example I-153, 2-[1-(3-tert-Butyl-phenyl)-1H-imidazol-4-yl]-5H-pyrrolo[2,3-b]pyrazine-7-carboxylic acid ((S)-1,2,2-trimethyl-propyl)-amide] | 75.4
9 | CC(C)[C@H](C)NC(=O)c1c[nH]c2ncc(C3CC3)nc12 [Example I-25, 2-Cyclopropyl-5H-pyrrolo[2,3-b]pyrazine-7-carboxylic acid ((S)-1,2-dimethyl-propyl)-amide] | 6.73
10 | CC(C)(C(=O)O)C(NC(=O)c1c[nH]c2ncc(C3CC3)nc12)C1CC1 (centres unmarked) [Example I-92, 3-Cyclopropyl-3-[(2-cyclopropyl-5H-pyrrolo[2,3-b]pyrazine-7-carbonyl)-amino]-2,2-dimethyl-propionic acid] | 95.1
11 | CC(C)NC(=O)c1c[nH]c2ncc(Oc3ccccc3Cl)nc12 [Example I-255, 2-(2-Chloro-phenoxy)-5H-pyrrolo[2,3-b]pyrazine-7-carboxylic acid isopropylamide] | 382
12 | CC(C)NC(=O)c1c[nH]c2ncc(Oc3cccc(C(C)(C)C)c3)nc12 [Example I-231, 2-(3-tert-Butyl-phenoxy)-5H-pyrrolo[2,3-b]pyrazine-7-carboxylic acid isopropylamide] | 4220
13 | C[C@H](NC(=O)c1c[nH]c2ncc(-c3ccc(C(=O)N4C5CCC4CC5)s3)nc12)C(C)(C)C [Example I-177, 2-[5-(7-Aza-bicyclo[2.2.1]heptane-7-carbonyl)-thiophen-2-yl]-5H-pyrrolo[2,3-b]pyrazine-7-carboxylic acid ((S)-1,2,2-trimethyl-propyl)-amide] | 0.32
14 | CC(O)CCNC(=O)c1c[nH]c2ncc(C3CC3)nc12 (centres unmarked) [Example I-68, 2-Cyclopropyl-5H-pyrrolo[2,3-b]pyrazine-7-carboxylic acid (3-hydroxy-butyl)-amide] | 358
15 | C[C@H](NC(=O)c1c[nH]c2ncc(-c3cccs3)nc12)C(C)(C)O [Example I-18, 2-Thiophen-2-yl-5H-pyrrolo[2,3-b]pyrazine-7-carboxylic acid ((S)-2-hydroxy-1,2-dimethyl-propyl)-amide] | 3.05
16 | C[C@H](NC(=O)c1c[nH]c2ncc(-c3cn(-c4cc(Cl)ccc4F)cn3)nc12)C(C)(C)C [Example I-147, 2-[1-(5-Chloro-2-fluoro-phenyl)-1H-imidazol-4-yl]-5H-pyrrolo[2,3-b]pyrazine-7-carboxylic acid ((S)-1,2,2-trimethyl-propyl)-amide] | 2.46

The remaining lines, values ahead:

Row | IC50 [nM] | SMILES
17 | 0.71 | C[C@H](NC(=O)c1c[nH]c2ncc(-c3ccc(C(=O)NCC(C)(C)C)s3)nc12)C(C)(C)C [Example I-210, 2-[5-(2,2-Dimethyl-propylcarbamoyl)-thiophen-2-yl]-5H-pyrrolo[2,3-b]pyrazine-7-carboxylic acid ((S)-1,2,2-trimethyl-propyl)-amide]
18 | 143 | CC(CO)CNC(=O)c1c[nH]c2ncc(C3CC3)nc12 (centres unmarked) [Example I-69, 2-Cyclopropyl-5H-pyrrolo[2,3-b]pyrazine-7-carboxylic acid (3-hydroxy-2-methyl-propyl)-amide]
19 | 16.3 | O=C(N[C@H](C1CC1)C1(O)CCCC1)c1c[nH]c2ncc(C3CC3)nc12 [Example I-104, 2-Cyclopropyl-5H-pyrrolo[2,3-b]pyrazine-7-carboxylic acid [(R)-cyclopropyl-(1-hydroxy-cyclopentyl)-methyl]-amide]
20 | 115 | C[C@H](NC(=O)c1c[nH]c2ncc(C3CC3)nc12)[C@@](C)(O)CC1CC1 [Example I-38, 2-Cyclopropyl-5H-pyrrolo[2,3-b]pyrazine-7-carboxylic acid ((1S,2S)-3-cyclopropyl-2-hydroxy-1,2-dimethyl-propyl)-amide]
21 | 50 | CC(C)NC(=O)c1c[nH]c2ncc(Oc3ccc4c(c3)[C@H](NC(=O)C3CC3)CC4)nc12 [Example I-284, 2-[(R)-3-(Cyclopropane-carbonyl-amino)-indan-5-yloxy]-5H-pyrrolo[2,3-b]pyrazine-7-carboxylic acid isopropylamide]
22 | 84.5 | CC(C)(O)C(CCO)NC(=O)c1c[nH]c2ncc(C3CC3)nc12 (centres unmarked) [Example I-17, 2-Cyclopropyl-5H-pyrrolo[2,3-b]pyrazine-7-carboxylic acid [2-hydroxy-1-(2-hydroxy-ethyl)-2-methyl-propyl]-amide]
23 | 0.46 | C[C@H](NC(=O)c1c[nH]c2ncc(-c3ccc(C(=O)NCc4cccc(Cl)c4Cl)s3)nc12)C(C)(C)C [Example I-186, 2-[5-(2,3-Dichloro-benzylcarbamoyl)-thiophen-2-yl]-5H-pyrrolo[2,3-b]pyrazine-7-carboxylic acid ((S)-1,2,2-trimethyl-propyl)-amide]
24 | 682 | C[C@@H](NC(=O)c1c[nH]c2ncc(Oc3ccccc3)nc12)C(C)(C)O [Example I-116, 2-Phenoxy-5H-pyrrolo[2,3-b]pyrazine-7-carboxylic acid ((R)-2-hydroxy-1,2-dimethyl-propyl)-amide]
25 | 0.88 | C[C@H](NC(=O)c1c[nH]c2ncc(-c3cnn(C)c3)nc12)C1CCCCC1 [Example I-140, 2-(1-Methyl-1H-pyrazol-4-yl)-5H-pyrrolo[2,3-b]pyrazine-7-carboxylic acid ((S)-1-cyclohexyl-ethyl)-amide]
26 | 25.3 | CC(C)c1cccc(-n2cnc(-c3cnc4[nH]cc(C(=O)N[C@@H](C)C(C)(C)C)c4n3)c2)c1 [Example I-152, 2-[1-(3-Isopropyl-phenyl)-1H-imidazol-4-yl]-5H-pyrrolo[2,3-b]pyrazine-7-carboxylic acid ((S)-1,2,2-trimethyl-propyl)-amide]
27 | 29.4 | CC(C)(C)CNC(=O)c1c[nH]c2ncc(C3CC3)nc12 [Example I-55, 2-Cyclopropyl-5H-pyrrolo[2,3-b]pyrazine-7-carboxylic acid (2,2-dimethyl-propyl)-amide]
28 | 9.84 | CC(C)[C@H](CO)NC(=O)c1c[nH]c2ncc(C3CC3)nc12 [Example I-56, 2-Cyclopropyl-5H-pyrrolo[2,3-b]pyrazine-7-carboxylic acid ((R)-1-hydroxymethyl-2-methyl-propyl)-amide]
29 | 125 | CCC(=O)N[C@@H]1CCc2ccc(Oc3cnc4[nH]cc(C(=O)NC(C)C)c4n3)cc21 [Example I-282, 2-((R)-3-Propionylamino-indan-5-yloxy)-5H-pyrrolo[2,3-b]pyrazine-7-carboxylic acid isopropylamide]
30 | 0.54 | C#CCNC(=O)c1ccc(-c2cnc3[nH]cc(C(=O)N[C@@H](C)C(C)(C)C)c3n2)s1 [Example I-198, 2-(5-Prop-2-ynylcarbamoyl-thiophen-2-yl)-5H-pyrrolo[2,3-b]pyrazine-7-carboxylic acid ((S)-1,2,2-trimethyl-propyl)-amide]
31 | 0.56 | COc1ccc(OC)c(CNC(=O)c2ccc(-c3cnc4[nH]cc(C(=O)N[C@@H](C)C(C)(C)C)c4n3)s2)c1 [Example I-204, 2-[5-(2,5-Dimethoxy-benzylcarbamoyl)-thiophen-2-yl]-5H-pyrrolo[2,3-b]pyrazine-7-carboxylic acid ((S)-1,2,2-trimethyl-propyl)-amide]
32 | 1590 | CCNC(=O)c1c[nH]c2ncc(Oc3cccc(CC)c3)nc12 [Example I-249, 2-(3-Ethyl-phenoxy)-5H-pyrrolo[2,3-b]pyrazine-7-carboxylic acid ethylamide]
33 | 387 | CC(=O)N[C@@H]1CCc2ccc(Oc3cnc4[nH]cc(C(=O)NC(C)C#N)c4n3)cc21 (stereo partly drawn) [Example I-298, 2-((R)-3-Acetylamino-indan-5-yloxy)-5H-pyrrolo[2,3-b]pyrazine-7-carboxylic acid (cyano-methyl-methyl)-amide]
34 | 38.5 | C[C@@H](NC(=O)c1c[nH]c2ncc(C3CC3)nc12)C1(C#N)CCCC1 [Example I-100, 2-Cyclopropyl-5H-pyrrolo[2,3-b]pyrazine-7-carboxylic acid [(R)-1-(1-cyano-cyclopentyl)-ethyl]-amide]
35 | 20.1 | C[C@H](NC(=O)c1c[nH]c2ncc(C3CC3)nc12)C1CCCCC1 [Example I-32, 2-Cyclopropyl-5H-pyrrolo[2,3-b]pyrazine-7-carboxylic acid ((S)-1-cyclohexyl-ethyl)-amide]
